Assay results taken from patent US20080254042A1, “Novel Use of Prrp and Receptor Thereof” (Takeda Pharmaceutical Company Limited, priority 2004, published 2008).

Assays:
[1] = Catecholamine level in the striatum after MPTP, PrRP knockout vs wild-type mice; type: in vivo, mouse; settings: seven days after final administration, FIG. 3
Description: MPTP or saline for control was administered to PrRP knockout mice and wild-type mice in a manner similar to EXAMPLE 1. Seven days after the final administration, the striatal sites were immediately excised from the brains, frozen in liquid nitrogen and then stored at −80° C. Catecholamines such as Dopamine (DA), DOPAK, HVA, etc. were measured as follows. First, the excised corpus striata were homogenized in 0.2M perchloric acid containing 100 ng/mL isoproterenol (Sigma), centrifuged at 15,000 g for 20 minutes at 0° C., and filtered through a 0.22 μm filter. The final solution, 10 μL, was separated under the conditions at flow rate of 0.5 mL/min in 83% 0.1 M acetic acid-citrate buffer (pH 3.5)/17% methanol solution containing 190 mg/L SDS and 5 mg/L EDTA-2Na through EICOMPAK SC-50DS column (3.0 mm×150 mm, EICOM), and determined by electrochemical detection.

[2] = Motor activity assessed with a rotarod after MPTP, PrRP knockout vs wild-type mice; type: in vivo, mouse; settings: FIG. 2
Description: In order to examine the relation of Parkinson's disease to PrRP, decrement of motor activities known as symptoms of Parkinson's disease induced by administration of MPTP was compared between PrRP knockout mice and wild-type mice. The motor activity of each mouse was assessed with a rotarod. […] Turning to the PrRP knockout mice, there was no difference between the group administered with MPTP and the group administered with saline for control, and the motor activity was normal (FIG. 2). These phenomena reveal that onset of Parkinson's disease induced by MPTP was suppressed in the PrRP knockout mice.

nigral dopamine cells [3] = test: Number of tyrosine hydroxylase positive (dopamine) cells in the substantia nigra after MPTP, PrRP knockout vs wild-type mice; type: in vivo, mouse; settings: FIG. 1
Excerpt: It is known that MPTP (methyl-phenyl-tetrahydropyridine) causes degenerative loss of nigral dopamine cells to induce Parkinson's disease. Thus, the brains were excised from PrRP knockout mice and wild-type mice, to which MPTP or saline for control was given as in EXAMPLE 1, and then immersed and fixed in a 0.07M phosphate buffer (pH 7.4) containing 5% acrolein (Tokyo Chemical Industry). The brains were then immersed in 30% sucrose-containing phosphate buffered saline (PBS) for more than 2 days. The free-floating technique was used for immunohistochemistry. A frozen frontal section in 40 μm thickness of the brain was prepared using a cryomicrotome. Next, the section was soaked in and washed with PBS for water immersion, then treated with 0.5% sodium metaperiodate-containing PBS (20 minutes) to inactivate the endogenous peroxidase activity, and the aldehyde group was reduced by treatment with 1% sodium borohydride-containing PBS (20 minutes). In addition, non-specific reactions were blocked by treatment with 1% normal horse serum and 0.4% Triton X-100-containing BPS (TNBS) (an hour). […] The number of tyrosine hydroxylase positive cells, which are dopamine cells in the substantia nigra, was counted under an optical microscope.

[4] = test system: striatal dopamine nerve fibers; test: TH-positive fiber density in the striatum, MPTP after intraventricular antibody; settings: C57BL/6J mice given normal mouse IgG i.c.v., then MPTP 20 mg/kg i.p. 4 times every 2 hours; P<0.05; FIG. 5
Description: (§1) Male C57BL/6J mouse (CLEA Japan) of 14 weeks old was fixed on a brain stereotaxic apparatus under anesthesia with pentobarbital (Dainippon Pharmaceutical) and the skull surface was exposed. After the skull was dried with a drier, the coordinates of bregma were located to determine the coordinates of the left lateral ventricle (AP: −0.2 mm, lateral: +1.0 mm, depth: +2.5 mm from bregma). After a burr hole was made with a dental drill on the skull across the bregma from the location of the left lateral ventricle, anchor screws (EICOM) were implanted to fix a dental cement (GC Corp., Unifast II). A hole was made with a dental drill (Urawa Corp., Model: UC100) for guide cannulation to vertically insert into the skull on the left lateral ventricle, and a guide cannula (EICOM) was eased down toward the ventricle. After leakage of cerebrospinal fluids was confirmed, the guide cannula was fixed on the coordinates determined. The dental cement was used for fixation and applied until the anchor screws were embedded. After it was confirmed that the cement was dried, the mouse was released from the stereotaxic apparatus. […]
(§2) The antibody solution was diluted in Centriprep (Millipore). Absorbance (280 nm) was measured to determine the antibody concentration, and the antibody was diluted in aseptic PBS (−) to 9.97 mg/mL. […]

[5] = test system: PrRP knockout mice and wild-type mice; test: Survival of PrRP knockout and wild-type mice after MPTP administration; type: in vivo, mouse; settings: MPTP i.p. every 2 hours 4 times at 20 μg/kg, five days after administration
Description: MPTP (methyl-phenyl-tetrahydropyridine) known to produce animal models of Parkinson's disease was intraperitoneally administered to PrRP knockout mice and wild-type mice every 2 hours 4 times at the dose of […]. Five days after the administration, 11 out of 21 wild-type mice survived with a survival rate of 52%, whereas 10 out of 10 PrRP knockout mice survived, meaning that there was no dead animal and the survival rate was 100%.

nigral dopamine cells [6] = test: Number of TH-positive cells in the substantia nigra pars compacta, MPTP after intraventricular antibody; settings: C57BL/6J mice given normal mouse IgG i.c.v., then MPTP 20 mg/kg i.p. 4 times every 2 hours; P<0.001; FIG. 4
Description: as §1, §2

CN1CC=C(c2ccccc2)CC1 [MPTP]
striatal dopamine (DA), DOPAC and HVA levels after MPTP ([1]; PrRP knockout mice): the degree of the decrease was smaller | striatal dopamine (DA), DOPAC and HVA levels after MPTP ([1]; wild-type mice): decreased markedly | motor activity (rotarod), MPTP group vs saline group ([2]; PrRP knockout mice): no difference | motor activity (rotarod), MPTP group vs saline group ([2]; wild-type mice): markedly decreased | decrease in number of tyrosine hydroxylase positive cells in the substantia nigra, MPTP group vs saline group (nigral dopamine cells [3]; PrRP knockout mice, no significant change): about 10% | decrease in number of tyrosine hydroxylase positive cells in the substantia nigra, MPTP group vs saline group (nigral dopamine cells [3]; wild-type mice, significant): about 60% | striatal dopamine nerve fibers (image analysis), vs saline group [4]: significant decrease | survival rate ([5]; PrRP knockout mice, 10 out of 10 survived): 100% | survival rate ([5]; wild-type mice, 11 out of 21 survived): 52% | dopamine cells in the substantia nigra pars compacta, vs saline group (nigral dopamine cells [6]): significant decrease
